Reference: PubChem BioAssay (NCI)
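Interpolation was linear, between the two tested concentrations surrounding the appropriate level; five concentrations were tested over 48 hours in 96-well plates. At the GI50, growth is halved. TGI is the concentration that stops growth completely.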

Experiments:
Assay in all cases: DTP human tumour cell line panel, 48 h
786-0 renal = test system: 786-0 renal
SNB-19 CNS = test system: SNB-19 CNS
HCT-15 colon = test system: HCT-15 colon
HOP-92 NSCLC = test system: HOP-92 NSCLC
IGROV1 ovarian = test system: IGROV1 ovarian
HT29 colon = test system: HT29 colon
SK-MEL-2 melanoma = test system: SK-MEL-2 melanoma
SN12C renal = test system: SN12C renal
SF-268 CNS = test system: SF-268 CNS
MALME-3M melanoma = test system: MALME-3M melanoma

Structure (SMILES)	GI50 (786-0 renal) [µM]	TGI (786-0 renal) [µM]	GI50 (SNB-19 CNS) [µM]	TGI (SNB-19 CNS) [µM]	GI50 (HCT-15 colon) [µM]	TGI (HCT-15 colon) [µM]	GI50 (HOP-92 NSCLC) [µM]	TGI (HOP-92 NSCLC) [µM]	GI50 (IGROV1 ovarian) [µM]	TGI (IGROV1 ovarian) [µM]	GI50 (HT29 colon) [µM]	TGI (HT29 colon) [µM]	GI50 (SK-MEL-2 melanoma) [µM]	TGI (SK-MEL-2 melanoma) [µM]	GI50 (SN12C renal) [µM]	TGI (SN12C renal) [µM]	GI50 (SF-268 CNS) [µM]	TGI (SF-268 CNS) [µM]	GI50 (MALME-3M melanoma) [µM]	TGI (MALME-3M melanoma) [µM]
O=C(C[C@@]1(O)C(=O)Nc2c(Cl)ccc(Cl)c21)c1ccc(C2CC2)cc1	1.39	20	0.69	18.1	0.102	13.6	1.46	19.7	0.446	13.6	0.222	13.7	0.515	18	0.88	17.7	1.3	18.5	0.542	23.9
CC(C)[C@H]1CO[C@@H]2O[C@H](C)CC(=O)N21		> 100		> 100		> 100		> 100		> 100		> 100		> 100		> 100		> 100		> 100
O=C1NC2(CCCC2)/C(=N\O)C12CCCC2		> 100		> 100		> 100		> 100		> 100		> 100		> 100		> 100		> 100		> 100
C=CC1(c2ccccc2Cl)N/C(=C/OCC)CO1 (stereo not given)		> 100		> 100		> 100		> 100		> 100		> 100		> 100		> 100		> 100		> 100
CCOC(=O)C1(Br)C(c2ccccc2)NC(=O)N(C2OC(COC(=O)c3ccccc3)C(OC(=O)c3ccccc3)C2OC(=O)c2ccccc2)C1(C)Br (stereo not given)		> 100		> 100		> 50.1		69.9		> 100		> 100		> 100		> 100		> 100		66.7
OC(COc1cccc2ccccc12)CN1CCN(c2ccc(Cl)cc2)CC1 (stereo not given)	16.3	33.1	17	45.4	> 100	> 100	5.02	28	14.6	40	16.6	77.6	21.7	60.3	51	> 100	19.1	45.5	22.5	64.7
CN(C)c1ccc(/C=C/c2ccnc3ccc4ccccc4c23)cc1		> 100		> 100		> 100		> 100		45.8		> 100		> 100		> 100		> 100		58.5
COc1ccc2c(c1)CC[C@@H]1[C@@H]2CC[C@]2(C)c3[nH]ncc3C[C@@H]12	18.2	> 50	21.4	> 50	16.8	> 50	14.4	> 50	21.9	> 50	15	> 50	17	> 50	18	> 50	19.6	> 50	11.7	27
NC(=S)N/N=C1\C(=O)N(CCc2ccccc2)C(=O)C1C(=O)NCCc1ccccc1 (stereo not given)		> 100		> 100		> 100		> 100		> 100		> 100		> 100		> 100		> 100		> 100
FC(F)(F)c1[nH]ncc1-c1nc2c(N3CCCCC3)cc3[nH]ncc3c2c2c1CCCC2	0.905	2.93	1.25	> 16.5	1.07	> 16.5	0.29	1.62	0.556	3.66	1.3	> 50	0.968	2.31	0.878	> 15.7	0.786	1.97	0.843	2.14
